{"source": "patent US9453198B2", "about": "“Method of nociceptor differentiation of human embryonic stem cells and uses thereof” (MEMORIAL SLOAN KETTERING CANCER CENTER, priority 2010, dated 2016)", "key": {"[1]": {"tested_on": "hPSCs", "assay": "Intracellular FACS for Nestin and TUJ1 (efficiency of neuronal differentiation)", "type": "cell-based, human", "conditions": "day 10, further inhibitors added day 2 of LSB treatment", "protocol": "In the presence of LSB, SU/DAPT, DAPT, SU and CHIR, the majority of cells expressed Nestin. In particular, >95% of the LSB cell population were Nestin+.\nNeural induction was performed as previously reported (Chambers, et al., Nat Biotechnol 27, (2009), herein incorporated by reference). Briefly, cells were collected then rendered to a single cell suspension using ACCUTASE (Sigma-Aldrich Corp. St. Louis, Mo., USA) and plated on gelatin for 30 minutes to remove Mouse Embryonic Fibroblast (MEF) Feeder Cells (MEFs) (MEFs adhere to gelatin coated plate). Non-adherent cells were collected and plated on matrigel treated dishes at a density of 20-40,000 cells/cm^2 in the presence of MEF-conditioned hESC media containing 10 ng/ml FGF-2 and 10 μM Y-27632 (rho-kinase inhibitor—Tocris Bioscience). Neural differentiation was initiated when the cells were confluent using Knockout Serum Replacement (KSR) media containing 820 ml of Knockout DMEM, 150 ml Knockout Serum Replacement, 1 mM L-glutamine, 100 μM MEM non-essential amino acids, and 0.1 mM β-mercaptoethanol. To inhibit SMAD signaling, 100 nM LDN-193189 and 10 μM SB431542 were added daily from day 0 (when SMAD signaling inhibitors LSB were added) through day 5. Cells were fed daily (i.e. 6 feedings with inhibitors, D0, D1, D2, D3, D4 and D5), and N2 media was added to the initial medium in increasing 25% increments every other day starting on day 4 (up to 100% N2 on day 10). […] After day 10, long-term culture media consisted of N2 media containing 10-100 ng/ml human-β-nerve growth factor (NGF), 10-100 ng/ml brain-derived neurotrophic factor (BDNF), and 10-100 ng/ml glial cell-derived neurotrophic factor (GDNF).\nCells were fixed with 4% paraformaldehyde for 20 minutes, washed with phosphate buffered saline (PBS), permeablized using 0.5% Triton X in PBS, and blocked using 1% BSA (bovine serum albumin) in phosphate buffered saline (PBS). For glutamate staining, 0.05% gluteraldehyde was added to the fixative. […]"}, "[2]": {"tested_on": "hESC", "assay": "Timing of 3i addition after LSB induction (survival, TUJ1)", "type": "cell-based", "excerpt": "Cells were stained for identifying antibodies that bound to OCT4 (dark) and PAX6 (light) in addition to a nuclear 4′-6 Diamidino-2-phenylindole (DAPI) stain.\nThe stem cells treated with the combination of LSB and 3i were fixed on day 11 and examined for survival and expression of the neuronal marker TUJ1."}, "[3]": {"tested_on": "melanocyte precursors from hESC", "assay": "Expansion and maturation of melanocytes", "type": "cell-based, human", "conditions": "component left out of formulation", "excerpt": "Melanocyte characteristics evaluated included induction of spindle morphology, pigmentation, and melanosome formation.\nSpecifically, the following time line of culturing conditions was developed that produced melanocytes of the present inventions: Feed on Day 0 and 1 with LDN and SB (using the same concentration ranges as LDN and SB in methods comprising 3i); Feed on Day 2 with LDN, SB, CHIR (using the same concentration ranges as LDN, SB, and CHIR in methods comprising 3i as described herein); In one embodiment, Feed on Day 3 with SB, CHIR (using the same concentration ranges as SB and CHIR in methods comprising 3i as described herein), in another embodiment Feed on Day 3 with LDN, SB, CHIR (using the same concentration ranges as LDN, SB, and CHIR in methods comprising 3i as described herein); Feed on Day 4 and 5 CHIR (using the same concentration ranges as CHIR in methods comprising 3i as described herein); Feed on Day 6 to 11 CHIR, BMP4, and EDN3 (using the same concentration ranges as CHIR in methods comprising 3i as described herein, see concentration ranges below for BMP4 and EDN3). On day 11 cells were passaged and fed with MEL media (including CHIR) up to 8 weeks. […]"}, "[4]": {"tested_on": "transgenic SOX10::GFP BAC hESC line", "assay": "SOX10::GFP reporter FACS (neural crest induction)", "type": "cell-based, human", "conditions": "by day 12 of differentiation", "excerpt": "Thus, in order to determine if a neural crest intermediate cell fate marked by SOX10 (Aoki, et al., Dev Biol 259, 19-33, (2003); Lee, et al., Nat Biotechnol 25, 1468-1475, (2007), herein incorporated by reference) in human cells would be observed during differentiation using a transgenic SOX10::GFP bacterial artificial chromosome (BAC) hPSC line. This SOX10:: GFP (BAC) cell line was generated with enriched neural crest gene markers that co-expressed with a GFP gene using methods previously reported (Placantonakis, et al., Stem Cells 27:521-532, (2009), herein incorporated by reference). The SOX10:GFP cell line was a sub-clone of the H9 hESC line. Cells were dissociated and gene delivery was performed using reagents (solution V), protocol (B-16), and equipment from Amaxa. The DNA nucleofected (transfected into the nucleus) was a bacterial artificial chromosome (BAC) containing the SOX10 gene with an inserted GFP, obtained from Gene Expression Nervous System Atlas [GENSAT] (accession number: GENSAT1-BX1086). […]"}, "[5]": {"tested_on": "rodent GSK3β homologs", "conditions": "cited from earlier work"}, "[6]": {"tested_on": "human ES cells", "assay": "Combinatorial small molecule screen, TUJ1/PAX6 immunofluorescence on day 10", "type": "cell-based", "conditions": "no matter when added during LSB treatment", "excerpt": "Specifically, in the context of dual SMAD inhibition (LSB), i.e. human ES cells were first treated with LSB (LDN-193189 and SB431542) for screening candidate compounds (i.e. small molecules) under approximately 400 conditions in order to find combinations of small molecules that might accelerate the acquisition of postmitotic neuron markers starting from human ES cells. Candidate compounds were chosen from molecules that targeted (altered) cell signaling pathways known to be important and frequently used in developmental studies in order to determine cell fates (for example, signaling pathways such as FGF, Notch, WNT, SHH (Sonic Hedgehog), etc.) for determining cells capable of CNS development. […]\nOn day 10 after addition of LSB, cells that survived during the screen were monitored for the loss of the human neuroectoderm marker PAX6 (Zhang, et al., Cell Stem Cell 7, 90-100, (2010), herein incorporated by reference) and initiation of neuronal differentiation by TUJ1 expression (Lee, et al., Cell Motil Cytoskeleton 17, 118-132, (1990), herein incorporated by reference). […] In general, results were determined by observing comparative amounts of TUJ1+/PAX6− staining of cells generated by each treatment such that the conditions and compounds showing the highest amounts of TUJ1+/PAX6− staining were chosen as successful for providing cells for further analysis. […]"}}, "data": [{"smiles": "C[C@H](NC(=O)Cc1cc(F)cc(F)c1)C(=O)N[C@H](C(=O)OC(C)(C)C)c1ccccc1", "note": "[DAPT, N—[N-(3,5-Difluorophenacetyl)-L-alanyl]-S-phenylglycine t-butyl ester]", "values": [{"measurement": "Nestin positive cells (progenitors)", "setting": "[1]", "result": "majority"}]}, {"smiles": "c1ccc2c(-c3cnn4cc(-c5ccc(N6CCNCC6)cc5)cnc34)ccnc2c1", "note": "[LDN193189, 4-(6-(4-(piperazin-1-yl)phenyl)pyrazolo[1,5-a]pyrimidin-3-yl)quinoline]", "values": [{"measurement": "effect of inclusion or exclusion from days 5 to 10 on the differentiation", "setting": "[2]", "result": "does not make a difference"}]}, {"smiles": "Cc1c[nH]c(/C=C2\\C(=O)Nc3ccccc32)c1CCC(=O)O", "note": "[SU5402, 2-[(1,2-Dihydro-2-oxo-3H-indol-3-ylidene)methyl]-4-methyl-1H-pyrrole-3-propanoic acid]", "values": [{"measurement": "Nestin positive cells (progenitors)", "setting": "[1]", "result": "majority"}]}, {"smiles": "CCCCC/C=C\\C/C=C\\CCCCCCCC(=O)O", "note": "[Linoleic Acid]", "values": [{"measurement": "requirement in medium for growth of melanocytes", "setting": "[3]", "result": "required"}]}, {"smiles": "Cc1c[nH]c(-c2cnc(NCCNc3ccc(C#N)cn3)nc2-c2ccc(Cl)cc2Cl)n1", "note": "[CHIR99021, 6-(2-(4-(2,4-dichlorophenyl)-5-(4-methyl-1H-imidazol-2-yl)pyrimidin-2-ylamino)ethylamino)nicotinonitrile]", "values": [{"measurement": "Nestin positive cells (progenitors)", "setting": "[1]", "result": "majority"}, {"measurement": "SOX10::GFP+ cells", "setting": "[4]", "result": "greater than 70%"}, {"measurement": "IC50 values", "setting": "[5]", "result": "nanomolar"}]}, {"smiles": "CC1=C2C[C@H]3[C@@H](CC=C4C[C@@H](O)CC[C@@]43C)[C@@H]2CC[C@]12O[C@@H]1C[C@H](C)CN[C@H]1[C@H]2C", "note": "[Cyclopamine]", "values": [{"measurement": "effect on TUJ1/PAX6 staining", "setting": "[6]", "result": "no effect"}]}]}
